Values joined by “and” are separate entries in the source; they are usually repeats but may differ in a detail not shown here. Equal values may be shown once.
Experiments:
Experiment in all cases: radiometric filter-binding kinase assay, Kinase HotSpot
Settings in all cases: compound 0.5 µM; ATP 10 µM
AURKA (human) = AURKA (human) (UniProt O14965)
CAMK4 (human) = CAMK4 (human) (UniProt Q16566)
CAMKK2 (human) = CAMKK2 (human) (UniProt Q96RR4)
CDC42BPA (human) = CDC42BPA (human) (UniProt Q5VT25)
CDK2 CCNE1 (human) = CDK2 CCNE1 (human) (UniProt P24941+P24864)
CDK6 CCND3 (human) = CDK6 CCND3 (human) (UniProt P30281+Q00534)
CHEK1 (human) = CHEK1 (human) (UniProt O14757)
CLK1 (human) = CLK1 (human) (UniProt P49759)
CSNK2A1 (human) = CSNK2A1 (human) (UniProt P68400)
DCLK2 (human) = DCLK2 (human) (UniProt Q8N568)
DYRK1B (human) = DYRK1B (human) (UniProt Q9Y463)
EPHA1 (human) = EPHA1 (human) (UniProt P21709)
EPHA3 (human) = EPHA3 (human) (UniProt P29320)
FGFR3 (human) = FGFR3 (human) (UniProt P22607)
FLT1 (human) = FLT1 (human) (UniProt P17948)
FYN (human) = FYN (human) (UniProt P06241)
GRK4 (human) = GRK4 (human) (UniProt P32298)
GRK7 (human) = GRK7 (human) (UniProt Q8WTQ7)
HCK (human) = HCK (human) (UniProt P08631)
LYN (human) = LYN (human) (UniProt P07948)
MAP3K3 (human) = MAP3K3 (human) (UniProt Q99759)
MAPK3 (human) = MAPK3 (human) (UniProt P27361)
MAPK8 (human) = MAPK8 (human) (UniProt P45983)
MAPKAPK5 (human) = MAPKAPK5 (human) (UniProt Q8IW41)
MARK2 (human) = MARK2 (human) (UniProt Q7KZI7)
NEK1 (human) = NEK1 (human) (UniProt Q96PY6)
NEK11 (human) = NEK11 (human) (UniProt Q8NG66)
NTRK3 (human) = NTRK3 (human) (UniProt Q16288)
PAK3 (human) = PAK3 (human) (UniProt O75914)
PBK (human) = PBK (human) (UniProt Q96KB5)
PLK1 (human) = PLK1 (human) (UniProt P53350)
PRKCA (human) = PRKCA (human) (UniProt P17252)
PRKCB2 (human) = PRKCB2 (human) (UniProt P05771)
PRKCH (human) = PRKCH (human) (UniProt P24723)
PRKCZ (human) = PRKCZ (human) (UniProt Q05513)
PTK2B (human) = PTK2B (human) (UniProt Q14289)
RPS6KA4 KD2 (human) = RPS6KA4 KD2 (human) (UniProt O75676)
SIK2 (human) = SIK2 (human) (UniProt Q9H0K1)
TBK1 (human) = TBK1 (human) (UniProt Q9UHD2)
WNK2 (human) = WNK2 (human) (UniProt Q9Y3S1)
YES1 (human) = YES1 (human) (UniProt P07947)
MET (human) = MET (human) (UniProt P08581)

Chain of MAPK3 (human) (P27361 whole entry, looked up): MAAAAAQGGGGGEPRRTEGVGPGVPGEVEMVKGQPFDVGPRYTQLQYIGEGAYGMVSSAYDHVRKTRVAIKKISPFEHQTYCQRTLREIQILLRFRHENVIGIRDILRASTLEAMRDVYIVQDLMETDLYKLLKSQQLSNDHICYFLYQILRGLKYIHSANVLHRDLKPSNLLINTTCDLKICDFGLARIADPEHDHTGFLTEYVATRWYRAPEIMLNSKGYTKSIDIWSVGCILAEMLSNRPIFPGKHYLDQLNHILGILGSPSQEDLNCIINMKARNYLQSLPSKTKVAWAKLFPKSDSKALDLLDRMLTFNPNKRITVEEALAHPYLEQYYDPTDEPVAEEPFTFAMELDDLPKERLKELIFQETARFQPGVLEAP
Chain of NEK1 (human) (Q96PY6 whole entry, looked up): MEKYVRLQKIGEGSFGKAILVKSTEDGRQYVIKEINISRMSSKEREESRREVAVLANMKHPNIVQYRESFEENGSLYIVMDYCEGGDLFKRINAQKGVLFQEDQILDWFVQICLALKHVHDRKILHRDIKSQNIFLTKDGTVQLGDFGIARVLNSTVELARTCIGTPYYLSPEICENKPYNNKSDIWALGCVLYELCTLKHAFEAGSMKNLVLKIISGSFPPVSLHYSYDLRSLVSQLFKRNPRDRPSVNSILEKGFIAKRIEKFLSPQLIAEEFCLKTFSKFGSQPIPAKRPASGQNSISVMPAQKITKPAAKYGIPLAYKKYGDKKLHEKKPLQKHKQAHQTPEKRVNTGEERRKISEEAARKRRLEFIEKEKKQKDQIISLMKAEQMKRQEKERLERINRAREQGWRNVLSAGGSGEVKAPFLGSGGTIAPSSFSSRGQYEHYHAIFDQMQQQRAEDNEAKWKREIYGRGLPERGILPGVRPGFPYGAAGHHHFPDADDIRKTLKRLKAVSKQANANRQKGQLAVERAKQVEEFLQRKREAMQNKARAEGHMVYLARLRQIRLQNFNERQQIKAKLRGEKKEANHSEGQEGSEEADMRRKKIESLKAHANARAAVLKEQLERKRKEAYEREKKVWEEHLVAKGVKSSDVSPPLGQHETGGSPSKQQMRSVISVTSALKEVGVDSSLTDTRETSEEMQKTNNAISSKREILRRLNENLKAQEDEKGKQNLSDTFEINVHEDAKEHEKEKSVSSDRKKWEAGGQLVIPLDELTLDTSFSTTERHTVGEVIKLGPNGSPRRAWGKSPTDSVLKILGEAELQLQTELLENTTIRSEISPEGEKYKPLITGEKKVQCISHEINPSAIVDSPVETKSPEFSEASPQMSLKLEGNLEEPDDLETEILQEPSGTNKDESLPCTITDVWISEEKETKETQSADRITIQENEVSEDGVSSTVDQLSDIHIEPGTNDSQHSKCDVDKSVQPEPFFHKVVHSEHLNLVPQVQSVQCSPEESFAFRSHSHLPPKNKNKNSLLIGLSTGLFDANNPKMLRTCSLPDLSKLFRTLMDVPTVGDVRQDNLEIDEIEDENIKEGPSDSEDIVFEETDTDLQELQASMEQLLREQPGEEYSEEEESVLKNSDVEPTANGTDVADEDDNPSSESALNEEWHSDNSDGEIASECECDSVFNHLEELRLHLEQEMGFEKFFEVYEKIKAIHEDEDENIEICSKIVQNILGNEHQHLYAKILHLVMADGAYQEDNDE
Chain of FLT1 (human) (P17948 whole entry, looked up): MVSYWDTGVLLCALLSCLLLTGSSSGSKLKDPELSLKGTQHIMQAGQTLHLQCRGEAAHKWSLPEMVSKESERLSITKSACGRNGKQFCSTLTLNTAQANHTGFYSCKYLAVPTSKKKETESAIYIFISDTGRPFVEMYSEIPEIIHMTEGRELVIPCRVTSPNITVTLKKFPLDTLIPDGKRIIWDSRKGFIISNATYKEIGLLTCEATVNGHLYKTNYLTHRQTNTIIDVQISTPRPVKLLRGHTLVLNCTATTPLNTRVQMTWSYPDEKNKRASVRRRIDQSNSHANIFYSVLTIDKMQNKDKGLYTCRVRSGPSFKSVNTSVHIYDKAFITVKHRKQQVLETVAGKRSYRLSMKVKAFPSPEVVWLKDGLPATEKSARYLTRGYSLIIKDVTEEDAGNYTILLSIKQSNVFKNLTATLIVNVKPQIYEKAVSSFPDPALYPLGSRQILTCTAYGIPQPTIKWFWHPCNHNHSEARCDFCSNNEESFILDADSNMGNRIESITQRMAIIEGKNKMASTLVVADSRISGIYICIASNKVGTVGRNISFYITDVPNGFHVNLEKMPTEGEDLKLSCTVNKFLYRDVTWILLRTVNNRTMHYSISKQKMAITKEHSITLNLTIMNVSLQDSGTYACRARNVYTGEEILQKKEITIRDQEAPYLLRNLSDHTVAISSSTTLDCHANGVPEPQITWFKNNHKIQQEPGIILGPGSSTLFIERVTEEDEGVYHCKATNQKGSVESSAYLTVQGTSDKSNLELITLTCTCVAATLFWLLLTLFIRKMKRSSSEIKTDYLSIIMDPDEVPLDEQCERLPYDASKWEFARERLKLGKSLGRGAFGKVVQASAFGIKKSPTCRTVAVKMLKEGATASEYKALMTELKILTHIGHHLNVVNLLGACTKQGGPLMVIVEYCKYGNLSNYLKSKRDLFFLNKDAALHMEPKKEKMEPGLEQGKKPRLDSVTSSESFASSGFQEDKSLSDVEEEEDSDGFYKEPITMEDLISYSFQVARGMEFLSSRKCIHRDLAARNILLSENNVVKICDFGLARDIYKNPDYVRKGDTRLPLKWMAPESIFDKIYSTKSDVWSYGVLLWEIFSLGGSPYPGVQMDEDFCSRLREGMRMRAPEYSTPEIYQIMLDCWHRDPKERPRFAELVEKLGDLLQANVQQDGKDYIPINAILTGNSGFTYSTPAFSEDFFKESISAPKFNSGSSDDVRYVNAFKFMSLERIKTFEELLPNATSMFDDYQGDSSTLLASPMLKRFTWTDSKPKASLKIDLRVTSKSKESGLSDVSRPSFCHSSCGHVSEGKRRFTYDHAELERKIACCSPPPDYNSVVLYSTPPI
Chain of NEK11 (human) (Q8NG66 whole entry, looked up): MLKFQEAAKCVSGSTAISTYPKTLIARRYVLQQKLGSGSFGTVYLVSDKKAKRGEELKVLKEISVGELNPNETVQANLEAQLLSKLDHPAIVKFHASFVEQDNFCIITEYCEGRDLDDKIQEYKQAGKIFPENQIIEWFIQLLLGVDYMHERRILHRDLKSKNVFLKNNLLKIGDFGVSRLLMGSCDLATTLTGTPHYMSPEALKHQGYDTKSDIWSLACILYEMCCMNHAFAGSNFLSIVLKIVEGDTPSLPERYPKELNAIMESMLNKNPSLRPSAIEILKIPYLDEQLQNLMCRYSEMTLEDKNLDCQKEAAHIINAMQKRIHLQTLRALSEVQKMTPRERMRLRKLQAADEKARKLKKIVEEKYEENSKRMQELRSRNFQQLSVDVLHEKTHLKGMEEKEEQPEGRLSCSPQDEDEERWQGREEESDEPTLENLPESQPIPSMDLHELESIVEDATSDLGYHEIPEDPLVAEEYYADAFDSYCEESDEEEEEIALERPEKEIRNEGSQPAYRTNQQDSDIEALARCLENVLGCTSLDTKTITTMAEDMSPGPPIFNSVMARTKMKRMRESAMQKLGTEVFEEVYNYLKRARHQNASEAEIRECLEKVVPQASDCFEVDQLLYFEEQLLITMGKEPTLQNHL
Chain of EPHA3 (human) (P29320 whole entry, looked up): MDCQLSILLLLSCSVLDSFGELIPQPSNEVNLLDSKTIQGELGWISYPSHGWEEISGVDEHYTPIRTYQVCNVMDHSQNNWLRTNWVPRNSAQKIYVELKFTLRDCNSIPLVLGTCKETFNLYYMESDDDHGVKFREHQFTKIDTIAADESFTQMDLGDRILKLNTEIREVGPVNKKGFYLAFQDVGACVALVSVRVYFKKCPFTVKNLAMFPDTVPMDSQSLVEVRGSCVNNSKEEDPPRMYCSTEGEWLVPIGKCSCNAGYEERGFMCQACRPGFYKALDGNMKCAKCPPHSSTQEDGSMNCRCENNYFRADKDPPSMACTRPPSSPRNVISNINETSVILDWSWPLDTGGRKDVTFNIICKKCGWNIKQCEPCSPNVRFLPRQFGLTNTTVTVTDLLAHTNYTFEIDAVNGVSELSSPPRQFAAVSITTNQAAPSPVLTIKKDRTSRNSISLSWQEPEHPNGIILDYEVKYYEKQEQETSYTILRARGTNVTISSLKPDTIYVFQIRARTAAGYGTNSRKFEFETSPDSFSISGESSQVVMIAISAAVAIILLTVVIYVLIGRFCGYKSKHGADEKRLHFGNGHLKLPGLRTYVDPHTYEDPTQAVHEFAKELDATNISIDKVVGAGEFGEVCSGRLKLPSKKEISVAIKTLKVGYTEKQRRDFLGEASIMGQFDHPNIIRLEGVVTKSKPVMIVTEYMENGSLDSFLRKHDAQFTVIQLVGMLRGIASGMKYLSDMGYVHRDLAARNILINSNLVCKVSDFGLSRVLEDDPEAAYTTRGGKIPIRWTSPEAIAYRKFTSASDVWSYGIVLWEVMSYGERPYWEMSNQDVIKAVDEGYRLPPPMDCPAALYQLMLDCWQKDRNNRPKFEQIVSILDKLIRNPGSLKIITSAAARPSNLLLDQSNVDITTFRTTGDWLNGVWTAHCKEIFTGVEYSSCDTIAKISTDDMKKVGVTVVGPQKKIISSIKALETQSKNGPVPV
Chain of AURKA (human) (O14965 whole entry, looked up): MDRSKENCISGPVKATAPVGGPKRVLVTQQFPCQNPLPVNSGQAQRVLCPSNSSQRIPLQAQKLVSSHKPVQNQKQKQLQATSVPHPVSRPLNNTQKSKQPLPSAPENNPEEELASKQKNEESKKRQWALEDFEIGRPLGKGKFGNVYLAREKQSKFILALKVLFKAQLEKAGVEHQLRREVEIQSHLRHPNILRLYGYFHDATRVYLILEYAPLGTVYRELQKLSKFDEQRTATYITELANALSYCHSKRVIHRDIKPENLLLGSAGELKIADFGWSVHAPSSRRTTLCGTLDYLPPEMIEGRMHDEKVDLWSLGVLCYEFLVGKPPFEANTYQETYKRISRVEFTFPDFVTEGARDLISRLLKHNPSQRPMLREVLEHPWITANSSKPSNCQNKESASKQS

With O=C1NC(=O)C(c2c[nH]c3ccccc23)=C1c1c[nH]c2ccccc12 as the compound, how does the residual activity (AURKA (human)) read?
Its residual activity is 108%.

What about the residual activity (CAMK4 (human)) of the same compound?
The residual activity was 100%.

What about the residual activity (CAMKK2 (human)) of the same compound?
The residual activity was 92.8%.

And the residual activity (CDC42BPA (human))?
Its residual activity is 89.9%.

And the residual activity (CDK2 CCNE1 (human))?
Its residual activity is 71.4%.

And the residual activity (CDK6 CCND3 (human))?
The residual activity was 103%.

What about the residual activity (CHEK1 (human)) of the same compound?
Its residual activity is 93.1%.

What about the residual activity (CLK1 (human)) of the same compound?
The residual activity was 111%.

And the residual activity (CSNK2A1 (human))?
The residual activity was 106%.

What about the residual activity (DCLK2 (human)) of the same compound?
The residual activity was 89.3%.

What about the residual activity (DYRK1B (human)) of the same compound?
Its residual activity is 86.8%.

What about the residual activity (EPHA1 (human)) of the same compound?
Its residual activity is 92.1%.

What about the residual activity (EPHA3 (human)) of the same compound?
The residual activity was 95.1%.

What about the residual activity (FGFR3 (human)) of the same compound?
Its residual activity is 70.7%.

And the residual activity (FLT1 (human))?
The residual activity was 53.9%.

What about the residual activity (FYN (human)) of the same compound?
Its residual activity is 101%.

What about the residual activity (GRK4 (human)) of the same compound?
The residual activity was 97.1%.

What about the residual activity (GRK7 (human)) of the same compound?
Its residual activity is 91.8%.

What about the residual activity (HCK (human)) of the same compound?
The residual activity was 96%.

What about the residual activity (LYN (human)) of the same compound?
The residual activity was 102% and 104%.

And the residual activity (MAP3K3 (human))?
Its residual activity is 127%.

And the residual activity (MAPK3 (human))?
The residual activity was 105%.

And the residual activity (MAPK8 (human))?
Its residual activity is 95.1%.

And the residual activity (MAPKAPK5 (human))?
The residual activity was 119%.

What about the residual activity (MARK2 (human)) of the same compound?
The residual activity was 88.9%.

What about the residual activity (NEK1 (human)) of the same compound?
The residual activity was 93.8%.

And the residual activity (NEK11 (human))?
Its residual activity is 108%.

And the residual activity (NTRK3 (human))?
The residual activity was 72.5%.

What about the residual activity (PAK3 (human)) of the same compound?
Its residual activity is 97.4%.

What about the residual activity (PBK (human)) of the same compound?
The residual activity was 100%.

What about the residual activity (PLK1 (human)) of the same compound?
Its residual activity is 94.5%.

What about the residual activity (PRKCA (human)) of the same compound?
The residual activity was 27.7%.

And the residual activity (PRKCB2 (human))?
Its residual activity is 42.9%.

And the residual activity (PRKCH (human))?
Its residual activity is 42%.

What about the residual activity (PRKCZ (human)) of the same compound?
The residual activity was 96.2%.

What about the residual activity (PTK2B (human)) of the same compound?
The residual activity was 95.6%.

What about the residual activity (RPS6KA4 KD2 (human)) of the same compound?
The residual activity was 87.4%.

What about the residual activity (SIK2 (human)) of the same compound?
Its residual activity is 102%.

And the residual activity (TBK1 (human))?
The residual activity was 84%.

And the residual activity (WNK2 (human))?
The residual activity was 92.7%.

What about the residual activity (YES1 (human)) of the same compound?
The residual activity was 88.4%.

With O=C1Cc2c([nH]c3ccc(Br)cc23)-c2ccccc2N1 as the compound, how does the residual activity (AURKA (human)) read?
Its residual activity is 99.7%.

What about the residual activity (CAMK4 (human)) of the same compound?
Its residual activity is 98.1%.

And the residual activity (CAMKK2 (human))?
Its residual activity is 77.8%.

What about the residual activity (CDC42BPA (human)) of the same compound?
Its residual activity is 99%.

And the residual activity (CDK2 CCNE1 (human))?
Its residual activity is 51.9%.

And the residual activity (CDK6 CCND3 (human))?
Its residual activity is 94.4%.

What about the residual activity (CHEK1 (human)) of the same compound?
The residual activity was 89%.

And the residual activity (CLK1 (human))?
The residual activity was 96.7%.

What about the residual activity (CSNK2A1 (human)) of the same compound?
Its residual activity is 79.1%.

What about the residual activity (DCLK2 (human)) of the same compound?
Its residual activity is 94.6%.

What about the residual activity (EPHA1 (human)) of the same compound?
The residual activity was 100%.

And the residual activity (EPHA3 (human))?
The residual activity was 96%.

What about the residual activity (FGFR3 (human)) of the same compound?
Its residual activity is 101%.

What about the residual activity (FLT1 (human)) of the same compound?
The residual activity was 78.9%.

And the residual activity (FYN (human))?
The residual activity was 73.4%.

And the residual activity (GRK4 (human))?
Its residual activity is 97.9%.

And the residual activity (GRK7 (human))?
The residual activity was 100%.

What about the residual activity (HCK (human)) of the same compound?
The residual activity was 85.5%.

What about the residual activity (LYN (human)) of the same compound?
The residual activity was 67.2% and 75.4%.

What about the residual activity (MAP3K3 (human)) of the same compound?
The residual activity was 93.2%.

What about the residual activity (MAPK3 (human)) of the same compound?
The residual activity was 100%.

What about the residual activity (MAPK8 (human)) of the same compound?
The residual activity was 87.5%.

What about the residual activity (MAPKAPK5 (human)) of the same compound?
Its residual activity is 94.6%.

And the residual activity (MARK2 (human))?
Its residual activity is 74.3%.

And the residual activity (NEK1 (human))?
Its residual activity is 95.4%.

And the residual activity (NEK11 (human))?
Its residual activity is 107%.

What about the residual activity (NTRK3 (human)) of the same compound?
The residual activity was 70.7%.

What about the residual activity (PAK3 (human)) of the same compound?
Its residual activity is 96.6%.

And the residual activity (PBK (human))?
Its residual activity is 99.3%.

What about the residual activity (PLK1 (human)) of the same compound?
The residual activity was 94.9%.

And the residual activity (PRKCA (human))?
Its residual activity is 98.6%.

And the residual activity (PRKCB2 (human))?
The residual activity was 102%.

And the residual activity (PRKCH (human))?
Its residual activity is 95.3%.

What about the residual activity (PRKCZ (human)) of the same compound?
The residual activity was 98.3%.

And the residual activity (PTK2B (human))?
The residual activity was 102%.

And the residual activity (RPS6KA4 KD2 (human))?
The residual activity was 108%.

What about the residual activity (SIK2 (human)) of the same compound?
Its residual activity is 63.5%.

And the residual activity (TBK1 (human))?
The residual activity was 93%.

And the residual activity (WNK2 (human))?
Its residual activity is 112%.

What about the residual activity (YES1 (human)) of the same compound?
Its residual activity is 59.1%.

How did the residual activity (AURKA (human)) turn out when Nc1nnc2[nH]c3ccccc3nc1-2 was run?
The residual activity was 111%.

And the residual activity (CAMK4 (human))?
Its residual activity is 104%.

And the residual activity (CAMKK2 (human))?
The residual activity was 98.8%.

And the residual activity (CDC42BPA (human))?
Its residual activity is 95.4%.

And the residual activity (CDK2 CCNE1 (human))?
Its residual activity is 85.5%.

And the residual activity (CDK6 CCND3 (human))?
Its residual activity is 105%.

And the residual activity (CHEK1 (human))?
The residual activity was 187%.

What about the residual activity (CLK1 (human)) of the same compound?
The residual activity was 99.2%.

And the residual activity (CSNK2A1 (human))?
The residual activity was 87.6%.

What about the residual activity (DCLK2 (human)) of the same compound?
The residual activity was 94.6%.

And the residual activity (DYRK1B (human))?
The residual activity was 96%.

And the residual activity (EPHA1 (human))?
Its residual activity is 100%.

What about the residual activity (EPHA3 (human)) of the same compound?
Its residual activity is 95.2%.

What about the residual activity (FGFR3 (human)) of the same compound?
The residual activity was 96.5%.

And the residual activity (FLT1 (human))?
The residual activity was 92.1%.

And the residual activity (FYN (human))?
The residual activity was 96.1%.

And the residual activity (GRK4 (human))?
The residual activity was 98.9%.

What about the residual activity (HCK (human)) of the same compound?
The residual activity was 98.6%.

What about the residual activity (LYN (human)) of the same compound?
The residual activity was 108% and 97%.

And the residual activity (MAP3K3 (human))?
Its residual activity is 103%.

What about the residual activity (MAPK3 (human)) of the same compound?
Its residual activity is 113%.

What about the residual activity (MAPK8 (human)) of the same compound?
Its residual activity is 89.6%.

And the residual activity (MAPKAPK5 (human))?
The residual activity was 82.7%.

And the residual activity (MARK2 (human))?
The residual activity was 110%.

And the residual activity (MET (human))?
Its residual activity is 90.1%.

And the residual activity (NEK1 (human))?
Its residual activity is 91.7%.

What about the residual activity (NEK11 (human)) of the same compound?
The residual activity was 110%.

And the residual activity (NTRK3 (human))?
Its residual activity is 92.1%.

And the residual activity (PAK3 (human))?
Its residual activity is 98.3%.

What about the residual activity (PBK (human)) of the same compound?
Its residual activity is 106%.

What about the residual activity (PLK1 (human)) of the same compound?
The residual activity was 94.5%.

And the residual activity (PRKCA (human))?
Its residual activity is 71%.

And the residual activity (PRKCB2 (human))?
Its residual activity is 88.5%.

And the residual activity (PRKCH (human))?
The residual activity was 87.9%.

What about the residual activity (PRKCZ (human)) of the same compound?
The residual activity was 106%.

What about the residual activity (PTK2B (human)) of the same compound?
Its residual activity is 92%.

And the residual activity (RPS6KA4 KD2 (human))?
Its residual activity is 79%.

What about the residual activity (SIK2 (human)) of the same compound?
The residual activity was 102%.

What about the residual activity (TBK1 (human)) of the same compound?
Its residual activity is 92%.

What about the residual activity (WNK2 (human)) of the same compound?
The residual activity was 95.9%.

And the residual activity (YES1 (human))?
The residual activity was 97.1%.

Reference: the kinase profiling compilation of Christmann-Franck et al. (2016)
